In patent US20200239530A1, “COMPOUNDS AND METHODS OF MODULATING PROTEIN DEGRADATION” (Vividion Therapeutics, Inc., priority 2017, published 2020):

Legend:
[1] = biological target: T1, DCAF17 DDB1- and CUL4-associated factor 17 (Homo sapiens, UniProt Q5H9S7); assay: Cysteine liganding, probe competition; format: binding
T1 construct: Cells were resuspended in cold PBS on ice and sonicated with a probe sonicator to achieve lysis; endogenous in cells
T1 sequence (Q5H9S7 1-520): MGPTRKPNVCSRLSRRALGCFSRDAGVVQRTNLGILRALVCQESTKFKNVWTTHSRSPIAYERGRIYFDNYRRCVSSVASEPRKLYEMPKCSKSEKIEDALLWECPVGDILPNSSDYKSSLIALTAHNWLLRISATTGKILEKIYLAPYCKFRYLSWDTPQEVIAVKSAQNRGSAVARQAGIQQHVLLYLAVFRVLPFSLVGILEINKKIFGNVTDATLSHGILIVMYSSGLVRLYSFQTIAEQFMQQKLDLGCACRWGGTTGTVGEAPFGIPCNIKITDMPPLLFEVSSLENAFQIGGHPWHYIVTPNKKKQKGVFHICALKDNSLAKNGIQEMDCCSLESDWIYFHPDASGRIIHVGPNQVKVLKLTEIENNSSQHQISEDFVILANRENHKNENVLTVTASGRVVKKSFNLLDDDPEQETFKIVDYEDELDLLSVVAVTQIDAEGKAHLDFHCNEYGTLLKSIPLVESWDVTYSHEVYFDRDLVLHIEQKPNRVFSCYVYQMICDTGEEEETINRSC
Method in brief: (§1)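 Read-out is loss of desthiobiotin iodoacetamide labelling at cysteines, measured on streptavidin-enriched tryptic peptides. Compound preincubation ran 1 hr at 25° C in PBS lysate holding 5 mg/ml proteome before the probe was added.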

[2] = biological target: T2, PPCDC Phosphopantothenoylcysteine decarboxylase (Homo sapiens, UniProt Q96CD2); assay: Cysteine liganding, probe competition; format: binding
T2 construct: Cells were resuspended in cold PBS on ice and sonicated with a probe sonicator to achieve lysis; endogenous in cells
T2 sequence (Q96CD2 1-204): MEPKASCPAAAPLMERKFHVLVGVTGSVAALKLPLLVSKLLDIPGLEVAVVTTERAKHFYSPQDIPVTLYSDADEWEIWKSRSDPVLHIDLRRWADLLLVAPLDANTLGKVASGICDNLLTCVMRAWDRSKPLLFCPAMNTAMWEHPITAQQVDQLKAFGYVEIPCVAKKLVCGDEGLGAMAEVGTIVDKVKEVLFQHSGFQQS
Method in brief: as §1

For `COc1ccc2c(c1)CCCN2C(=O)CCl` [KB02], the Liganded ([1]; DCAF17 Res# 20, uniprot Q5H9S7) was “YES”, the “100 Max” value ([1]; uniprot Q5H9S7) was 60.8 and the 100 ave ([1]; uniprot Q5H9S7) was 40.3. For the same molecule, the “500 Max” value ([1]; uniprot Q5H9S7) was 91.7, the 500 ave ([1]; uniprot Q5H9S7) was 91.7 and the Liganded ([2]; PPCDC Res# 173, uniprot Q96CD2) was “YES”.

For `O=C(CCl)Nc1cc(C(F)(F)F)cc(C(F)(F)F)c1` [KBO3], the “100 Max” value ([1]; uniprot Q5H9S7) was −21.2, the 100 ave ([1]; uniprot Q5H9S7) was −21.2 and the “100 Max” value ([2]; uniprot Q96CD2) was 23.85. For the same molecule, the 100 ave ([2]; uniprot Q96CD2) was 13.215, the “500 Max” value ([2]; uniprot Q96CD2) was 71.73 and the 500 ave ([2]; uniprot Q96CD2) was 71.73.
